Measurements as given in patent US20060003027A1, “Composition and method for reducing side effects of indole-3-carbinol and derivatives” (priority 2004, published 2006).

Key:
[1] = Side effects observed in treated patients (case reports); type: in vivo, human
Description: (§1) This patient was administered a high dosage of I3C, specifically 110 mg/per dose, twice daily. […] A composition (composition 1) in accordance with the present invention was then given to this patient. Composition 1 is as set forth below:
(§2) Composition 3 was then administered to this patient for a period of eight weeks.

[2] = tested on: cervical or vaginal neoplasia; assay: Treatment of female patients with coccygeal-area pain and abnormal pap smear (pain, pap smear, biopsy); type: in vivo, human; details: I3C alone, 110 mg per dose twice daily; Example 1 patient
Description: A patient, and 110 lbs. in weight, has complained of pain in the area of the coccygeal vertebra, which may reflect cervical inflammation, and/or cervical or vaginal neoplasia.
as §1
Composition 2 in accordance with the present invention was administered to the patient. Composition 2 is as set forth below:
as §2

[3] = tested on: mammary carcinogenesis; details: rat model; cited from earlier work
[4] = tested on: HPV-induced benign tumors of laryngeal tissue; details: mouse model; cited from earlier work

OCc1c[nH]c2ccccc12 [Composition I3C, Indole-3-carbinol]
side effects experienced ([1]; I3C alone, 110 mg per dose twice daily, about a week, patient, 110 lbs): headache, dizziness and fatigue | undesirable side effects ([1]; I3C at 200 mg/day and above 200 mg/day, some people of regular body weight): headache, dizziness, stomach disturbance, convulsion, vomiting, and fatigue | pain in the area of the coccygeal vertebra [2]: relief from the pain | inhibition of mammary carcinogenesis [3]: effective in inhibiting mammary carcinogenesis | growth of HPV-induced benign tumors of laryngeal tissue [4]: inhibits growth
